This note sets out measurements from patent publication KR20210021686A, “비천연 아미노산-결합 단백질, 및 이를 코딩하는 유전자가 도입된 형질전환체” (priority 2019, dated 2021).

For this assay, the target named is T1, Escherichia coli leucine-binding protein (류신-결합 단백질, LBP), wild type (WT), SEQ ID NO: 46, YFP-LBP fusion sensor (Escherichia coli, UniProt P04816).
T1 construct: made in house; host or cells: E. coli C321.ΔA (co-transformed with pEvol-CouA-RS)
Put plainly: FRET titration, dissociation constant (Table 1), WT LBP. Conditions: 50 mM NaH2PO4, 50 mM NaCl, pH 9.0.

T1 sequence (P04816 24-369): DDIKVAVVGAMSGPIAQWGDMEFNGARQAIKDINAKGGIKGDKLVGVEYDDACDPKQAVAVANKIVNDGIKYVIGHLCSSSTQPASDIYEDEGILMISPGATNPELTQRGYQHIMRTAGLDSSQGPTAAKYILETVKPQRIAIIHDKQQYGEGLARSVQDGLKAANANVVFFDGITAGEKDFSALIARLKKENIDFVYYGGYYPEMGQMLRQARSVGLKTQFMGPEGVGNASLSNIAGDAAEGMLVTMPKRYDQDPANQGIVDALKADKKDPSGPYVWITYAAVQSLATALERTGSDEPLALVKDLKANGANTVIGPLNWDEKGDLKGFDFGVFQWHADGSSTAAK

As for `CC(C)C[C@H](N)C(=O)O` [L-Leu, L-류신], the Kd was determined as 410 nM.
